Laboratory results from publication PMC12867150, “A fungi-derived cyclic peptide enhances Th9-mediated antitumor immunity by targeting ZAP70 and SREBP1” (The Journal of Clinical Investigation, 2025).

Experiments:
Raji-luciferase tumor = test: Raji-luciferase xenograft, survival (Figure 8L); format: in vivo, NSG mice; conditions: EpA-treated human Th9 CAR T cells 2 × 10^6 i.v.; n = 5; result in words
Description: Representative plots (A) and quantification (B) (n = 4). (C) Quantitative PCR analysis of IL9, IRF4, and SPI1 mRNA expression in human Th9 cells (n = 3). (D) Flow-cytometric analysis of mitochondrial membrane potential in human Th9 cells (n = 3). (E) Luciferase-based assay analysis of intracellular ATP levels in human Th9 cells (n = 5). (F) Flow-cytometric analysis of phosphorylated ZAP70 in human Th9 cells (n = 3). (G) Flow-cytometric analysis of TNF-α expression in human Th9 cells (n = 4). (H) Cytotoxicity assay of EpA-treated or control CD19 CAR Th9 cells against Raji lymphoma target cells at indicated effector-to-target (E/T) ratios (n = 3). (I) Schematic diagram of the in vivo Raji-luciferase xenograft model in NSG mice receiving control or EpA-treated human Th9 CAR T cells. (J and K) Representative bioluminescence imaging (J) and quantification of tumor radiance (K) in NSG mice at indicated time points after adoptive transfer. […] Statistical significance was determined using 2-tailed unpaired Student’s t test (B–H), 2-way ANOVA followed by Šidák’s post hoc test (K), and log-rank test (L). […]
For xenograft models, M-NSG mice were intravenously inoculated with 1 × 10^6 Raji-CD19 tumor cells. […] Tumor progression and immune cell infiltration were subsequently monitored according to experimental endpoints.

dendritic cells (DCs) = test: Flow cytometry of dendritic cells (S1J-K); format: in vivo, mouse; set-up: key to Frequencies of DC in Spleen / Frequencies of DC in LN: % of cells; conditions: for Frequencies of DC in LN: Supplemental Figure 1K left; for number of DC in LN: Supplemental Figure 1K right; for DC (CD11c) gate number: representative flow plot; for Frequencies of DC in Spleen: Supplemental Figure 1J left; for number of DC in Spleen: Supplemental Figure 1J right
Experimental: C57BL/6 mice were subcutaneously injected with 5 × 10^5 B16-OVA melanoma cells. Five days after tumor implantation, mice received an intravenous infusion of 2 × 10^6 in vitro–differentiated Th9 cells (cultured for 5 days), which were derived from OT-II CD45.1 donor mice, accompanied by 4 × 10^5 OVA peptide–pulsed DCs via the tail vein. To enhance T cell engraftment and facilitate lymphodepletion, a single intraperitoneal injection of cyclophosphamide (200 mg/kg, Sigma, catalog C0768) was administered 1 day prior to T cell transfer. Mice were euthanized at designated time points for the collection and analysis of spleens, tumor-draining lymph nodes, and tumor tissues.
(§1) Details regarding staining panels (human and mouse), reagents (including clones and catalog numbers), acquisition settings, compensation/controls, and analysis procedures are provided in Supplemental Methods. […]
Figure S1. EpA enhances immune responses. […]
Representative plots, frequencies, and total numbers of dendritic cells (DCs) in […]
spleens (J) and LNs (K). […]
Statistical analysis was performed using two-way ANOVA with Tukey’s post hoc test (A), one-way ANOVA with Tukey’s post hoc test (B) or two-tailed unpaired Student’s t-test (D and G–M). ns, not significant. *p < 0.05, **p < 0.01, ****p < 0.0001.
(also on this page, place not known: Mouse weight (g) CtrlEpA CtrlEpA CtrlEpA0 I CD45.1+ T cells (%) CtrlEpA CD4+ T cells (%) CtrlEpA CtrlEpA CtrlEpA FSC CD8 CD8 FSC FSC FSC BNumber of CD45.1+ T cells (×103 per mgĎ Number of CD4+ T cells (×104 per mgĎ DC (%)NK cells (%) NK cells (%) DC (%) Number of DC (×103 per mg) Number of NK cells (×105) Number of NK cells (×103 per mg) Number of DC (×105) FSC FSC FSC CD8 CtrlEpA CtrlEpA CtrlEpA CD8+ T cells (%) Number of CD8+ T cells (×104 per mgĎ nsns ns nsns ns 40 IL-6 (pg/ml))

human Th9 CAR T cells = test: IL-9 in human Th9 CAR T cells (S9D-E); format: cell-based; conditions: for IL-9 expression in human Th9 CAR-T cells: Supplemental Figure 9E; for IL-9 gate number: representative flow plot, Figure S9D
Description: as §1
(C) Flow-cytometric analysis of infection efficiency in Th9 cells transduced with a CD19-directed CAR lentivirus. (D and E) Flow-cytometric analysis of IL-9 expression in human Th9 CAR-T cells on days 5 and 6 of in vitro differentiation, showing representative plots (D) and quantification (E) (n = 3). […]
(H) and quantification (I) (n = 5 mice per group). Statistical analysis was performed using one-way ANOVA with Tukey’s post hoc test (A and B), or two-tailed unpaired Student’s t-test (E–G, and I). Repeated data are presented as mean ± SEM. *p < 0.05, […]
(also on this page, place not known: TP cells ANOV A 30IL-9+ cells (%) Fato Fato Fato Fato A SSC GzmB CtrlEpA MFIofMitoTracker (×102) GF NormalizedATPlevel CtrlEpA 4MFI of Mito Tracker (×105) CtrlEpA0 GzmB+ cells (%) CD4 10 20 IL-9+ cells (%) Day60 10 20 30 Ctrl) […]

Which survival (Raji-luciferase tumor) does the source give for anteiso-C15 Leu7 surfactin [EpA] here?
Its survival is “significantly prolonged survival”.

And the “Frequencies of DC in LN” value (dendritic cells (DCs); LN, replicate 1)?
The value was 2.19.

What about the “Frequencies of DC in LN” value (dendritic cells (DCs); LN, replicate 2) of the same substance?
The value was 1.85.

And the “Frequencies of DC in LN” value (dendritic cells (DCs); LN, replicate 3)?
The value was 1.69.

What about the “Frequencies of DC in LN” value (dendritic cells (DCs); LN, replicate 4) of the same substance?
The value was 1.46.

And the “number of DC in LN” value (dendritic cells (DCs); LN, replicate 1)?
Its value is 3234.29.

And the “number of DC in LN” value (dendritic cells (DCs); LN, replicate 2)?
The value was 2390.2.

And the “number of DC in LN” value (dendritic cells (DCs); LN, replicate 3)?
Its value is 1334.11.

What about the “number of DC in LN” value (dendritic cells (DCs); LN, replicate 4) of the same substance?
The value was 1093.89.

What about the “DC (CD11c) gate number” value (dendritic cells (DCs); LN, Figure S1K) of the same substance?
The value was 2.19.

And the “Frequencies of DC in Spleen” value (dendritic cells (DCs); Spleen, replicate 1)?
Its value is 1.58.

What about the “Frequencies of DC in Spleen” value (dendritic cells (DCs); Spleen, replicate 2) of the same substance?
The value was 1.85.

And the “Frequencies of DC in Spleen” value (dendritic cells (DCs); Spleen, replicate 3)?
Its value is 1.61.

What about the “Frequencies of DC in Spleen” value (dendritic cells (DCs); Spleen, replicate 4) of the same substance?
Its value is 3.57.

What about the “number of DC in Spleen” value (dendritic cells (DCs); Spleen, replicate 1) of the same substance?
Its value is 143005.

And the “number of DC in Spleen” value (dendritic cells (DCs); Spleen, replicate 2)?
The value was 161881.

What about the “number of DC in Spleen” value (dendritic cells (DCs); Spleen, replicate 3) of the same substance?
Its value is 145729.

And the “number of DC in Spleen” value (dendritic cells (DCs); Spleen, replicate 4)?
Its value is 275281.

And the “DC (CD11c) gate number” value (dendritic cells (DCs); Spleen, Figure S1J)?
Its value is 1.85.

What about the “DC frequencies and total counts” value (dendritic cells (DCs); spleens and lymph nodes, result in words) of the same substance?
The value was “significantly elevated”.

And the “IL-9 expression in human Th9 CAR-T cells” value (human Th9 CAR T cells; Day5, replicate 1)?
The value was 27.7.

And the “IL-9 expression in human Th9 CAR-T cells” value (human Th9 CAR T cells; Day5, replicate 2)?
The value was 21.8.

And the “IL-9 expression in human Th9 CAR-T cells” value (human Th9 CAR T cells; Day5, replicate 3)?
The value was 25.1.

What about the IL-9 gate number (human Th9 CAR T cells; Day5) of the same substance?
Its IL-9 gate number is 24.8.

And the “IL-9 expression in human Th9 CAR-T cells” value (human Th9 CAR T cells; Day6, replicate 1)?
Its value is 6.55.

What about the “IL-9 expression in human Th9 CAR-T cells” value (human Th9 CAR T cells; Day6, replicate 2) of the same substance?
The value was 6.68.

What about the “IL-9 expression in human Th9 CAR-T cells” value (human Th9 CAR T cells; Day6, replicate 3) of the same substance?
The value was 6.84.

What about the IL-9 gate number (human Th9 CAR T cells; Day6) of the same substance?
Its IL-9 gate number is 6.7.

And the “IL-9 production, Th9 CAR T” value (human Th9 CAR T cells; result in words)?
Its value is “increased IL-9 production”.
